Source: patent publication US7964613B2 (Asahi Kasei Pharma Corporation, priority 2007, dated 2011)

Experiments:
[1] = test system: thoracic aorta ring sample; test: Rat vascular smooth muscle relaxing action (phenylephrin contraction); conditions: cumulative phenylephrin, contraction relative to 60 mM KCl
Protocol: Examination of rat vascular smooth muscle relaxing action was performed as follows. A rat was anesthetized with pentobarbital sodium, and bled from the carotid artery, and then the thoracic aorta was extracted. The extracted vessel was immersed in ice-cooled Krebs-Henseleit nutrient solution bubbled with a mixed gas of 95% O2+5% CO2 to wash out the blood in the internal cavity of the vessel with the nutrient solution, and then stored overnight in the nutrient solution at 4° C. Then, connective tissues and lipids were removed from the vessel under a stereoscopic microscope, and a ring sample having a width of about 3 mm was prepared. The ring sample was hung in an organ bath containing the nutrient solution of 37° C., and a resting tension of 2.5 g was loaded on the sample. After the ring sample was stabilized for about 90 minutes, it was confirmed that a contraction reaction could be obtained by addition of 60 mM KCl alone. A test drug was added to the nutrient solution at an appropriate final concentration, and incubation was performed for 10 minutes. Then, phenylephrin was cumulatively added so that the concentration should become 1 nM, 10 nM, 100 nM, 1 μM and 10 μM.

[2] = test system: rat spinal canal stenosis (cauda equina compression-induced walking dysfunction) model; test: Rat spinal canal stenosis model, walking ability test; assay type: in vivo; conditions: treadmill; for walk distance compared with the solvent repetitive administration group: 14th day of repetitive administration; for Inventive compound repetitive administration group (average distance (m)): 14th day of repetitive administration started 4th day after operation, 7 or 8 animals
Source text: A rat spinal canal stenosis (cauda equina compression-induced walking dysfunction) model can be prepared according to the method of Nakai, K et al. (Anesth. Analg., 94, pp. 1537-1541 (2002)) or the like. Namely, a rat is anesthetized with pentobarbital sodium, shaved on the back, and fixed in the abdominal position. After disinfection on the back with Isodine Surgical Scrub (Meiji Seika), a lumbar part is cut open along the median to expose the spine. Then, a silicone rubber of 1×4×1.5 mm (height×length×width) is inserted into the fifth lumbar vertebral canal from a small hole on the vertebral arch. Benzylpenicillin potassium (Crystalline Penicillin G Potassium Meiji, Meiji Seika) is dropped on the opened lesion and intramuscularly injected in the femoral region for the purpose of evasion of infectious diseases. The muscles and skin of the opened lesion are sutured with a ligature, and Isodine Surgical Scrub is applied to the sutured portion. Animals of sham group are also prepared according to the aforementioned method, provided that silicone rubber is not inserted.
In walking ability test, evaluation is performed by using a treadmill (Muromachi Kikai). A rat is placed on a traveling belt, adapted to the environment more than 3 minutes under a grid-electrified condition (0.04 to 4 mA), and then made to start walking from a velocity of 10 m/min, and then the velocity is increased by 5 m/min every 3 minutes. The walk is stopped, and electrical stimulation (0.04 to 4 mA) is applied to the rat which has moved to the grid for electrical stimulation provided before the traveling belt. Distance which the animal walked after the animal started the walk until the animal became unable to walk, i.e., the animal came not to walk even if a stimulation (sound, contact, electricity) was added to the animal to urge it to walk, was calculated from the walking time. Before the operation, the walking function test is carried out 3 times to perform training of walk. From the 4th day after the operation, repetitive administration of each compound of the present invention as a test compound was started, and the walking ability test was performed on the 14th day of the administration for the measurement.
Each group consisted of 7 or 8 animals, and the average distance before the administration was the average for the animals of both groups. […] It was confirmed that the compounds of the present invention were useful as medicaments for therapeutic treatment of a disease accompanied by walking dysfunction such as spinal canal stenosis.

[3] = test system: TNF-α production; test: Inhibitory effect on TNF-α production in mice (LPS); assay type: in vivo, BALB/c mice; conditions: Mus musculus, 1.5 h; oral administration of 30 mg/kg, LPS 5 μg i.p. 60 minutes later, plasma after 90 minutes; read-out: TNF-α production suppressing action
Protocol: BALB/c mice (Japan CRJ, famale) were used as experimental animals. Each test compound was dissolved in distilled water at a concentration suitable for the examination. The weight of each mouse was measured, a test compound solution was orally administered in a volume corresponding to 10 ml/kg, and only distilled water was administered to the control group. Each group consisted of five to seven animals. LPS was dissolved in physiological saline, and intraperitoneally administered to each mouse in an amount of 5 μg. The test compound was administered first, and LPS (lipopolysaccharide, Sigma) was administered 60 minutes later. After 90 minutes, blood was collected from the abdominal large vein in the presence of heparin, and plasma was obtained by centrifugation. TNF-α content in the plasma was measured by using the ELISA method.

[4] = test system: mouse neuroblastoma cell strain N1E-115; test: Inhibitory effect on neurite retraction (LPA-induced); assay type: cell-based; conditions: mouse/rat NG108-15; 10 μM compound, 1 μM LPA, N1E-115 cells
Protocol: An experiment for Inhibitory effect on neurite retraction using mouse neuroblastoma cell strain N1E-115 was performed according to the method of Hirose, M. et al. (J. Cell. Biol., 141, pp. 1625-1636 (1998)). This method utilizes the fact that LPA (lysophosphatidic acid), which is a endogenous substance, induces neurite retraction, and is a method of evaluating how much a drug can inhibit the LPA-induced neurite retraction and thereby evaluating potency of inhibition of neuronal degeneration and potency of neuronal regeneration of the drug. N1E-115 cells cultured in a DMEM solution containing 20% heat-inactivated fetal bovine serum were plated on a 6-well plate (IWAKI) at a density of 40,000 cells/well, and cultured overnight at 37° C. in the same culture medium in a 5% CO2 incubator. In order to induce differentiation of the N1E 115 cells into nerve cells, the culture medium was changed to the serum-free DMEM solution, and the cells were cultured for 1 or 2 days at 37° C. in the 5% CO2 incubator until most of the cells extended the neurites. On the examination day, each compound of the present invention was added at a final concentration of 10 μM, incubation was performed for 30 minutes, then LPA (Sigma) was added at a final concentration of 1 μM, and incubation was further performed for 10 minutes. To the control, the same volume of phosphate buffered saline as the solvent was added. After completion of the incubation, glutaraldehyde was added at a final concentration of 5% to fix the cells. […] The inhibition rate (%) of each drug was calculated by using the following equation. Inhibition rate(%)=100−(RCP obtained with drug to be evaluated−RCP of control)/(RCP obtained with LPA−RCP of control)×100

IC50 [1] [nM] | Compound | walk distance compared with the solvent repetitive administration group [2] | Inventive compound repetitive administration group (average distance (m)) [2] [m] | inhibition in vivo at 30 mg/kg [3] [%] | inhibition at 10 µM [4] [%]
300 | CN[C@H]1CCN(S(=O)(=O)c2cccc3cncc(Cl)c23)C1 [Example 19-3, (S)-1-(4-Chloro-5-isoquinolinesulfonyl)-3-(methylamino)pyrrolidine] | extended the walk distance | 285 | ≥ 50 | ≥ 50
 | N[C@H]1CCN(S(=O)(=O)c2cccc3cncc(Cl)c23)C1 [Example 19-1, (S)-3-Amino-1-(4-chloro-5-isoquinolinesulfonyl)pyrrolidine] |  |  | ≥ 50 | ≥ 50
 | CN[C@H]1CCN(S(=O)(=O)c2cccc3cncc(C)c23)C1 [Example 8-3] | extended the walk distance | 224 | ≥ 50 | ≥ 50
100 | CN[C@H]1CCN(S(=O)(=O)c2cccc3c(O)ncc(Cl)c23)C1 [Example 36-1, (S)-1-(1-Hydroxy-4-chloro-5-isoquinolinesulfonyl)-3-(methylamino)pyrrolidine] | extended the walk distance | 298 | ≥ 50 | ≥ 50
